In US12180198B2, “Ribocil C antibiotics effective for Gram-negative pathogens” (THE BOARD OF TRUSTEES OF THE UNIVERSITY OF ILLINOIS, priority 2018, dated 2024):

What was measured:
Assay in all cases: Bioactivity against exemplary strains of bacteria (Table 5A)
Assay type in all cases: cell-based
[1] = tested on: K. pneumoniae BAA-2146; settings: Strain 4: K. pneumoniae BAA-2146
[2] = tested on: E. coli BAA-2469; parameters: unit not given here; settings: Strain 2: E. coli BAA-2469
[3] = tested on: A. baumannii BAA-2093; settings: Strain 3: A. baumannii BAA-2093

Row | SMILES | Bioactivity [1] | Bioactivity [2] | Bioactivity [3]
1 | NCc1cnc(-n2cnc(CN3CCCC(c4nc(O)cc(-c5cccs5)n4)C3)c2)nc1 (stereo not drawn) [R13a] | 64 | 16 | >128
2 | CCN(CC)CCNc1nc(/C=C/c2ccc(Cl)cc2)nc2cc3ccccc3cc12 [Z3, Zantrin Z3, reference compound] | >64 | >64 | 32
3 | NCCNc1nc(/C=C/c2ccc(Cl)cc2)nc2cc3ccccc3cc12 [Z7, (E)-N^1-(2-(4-chlorostyryl)benzo[g]quinazolin-4-yl)ethane-1,2-diamine] | >32 | 4 | 2
